Series [1] relates to AIA rats. The series can be described thus: Cancellous bone loss in adjuvant induced arthritic (AIA) rats, MicroCT of right proximal tibia. It is filed as in vivo, male Lewis rats.
The target in series [2] is T1, PPAR-gamma (Homo sapiens, UniProt P37231).
T1 sequence (P37231 1-505): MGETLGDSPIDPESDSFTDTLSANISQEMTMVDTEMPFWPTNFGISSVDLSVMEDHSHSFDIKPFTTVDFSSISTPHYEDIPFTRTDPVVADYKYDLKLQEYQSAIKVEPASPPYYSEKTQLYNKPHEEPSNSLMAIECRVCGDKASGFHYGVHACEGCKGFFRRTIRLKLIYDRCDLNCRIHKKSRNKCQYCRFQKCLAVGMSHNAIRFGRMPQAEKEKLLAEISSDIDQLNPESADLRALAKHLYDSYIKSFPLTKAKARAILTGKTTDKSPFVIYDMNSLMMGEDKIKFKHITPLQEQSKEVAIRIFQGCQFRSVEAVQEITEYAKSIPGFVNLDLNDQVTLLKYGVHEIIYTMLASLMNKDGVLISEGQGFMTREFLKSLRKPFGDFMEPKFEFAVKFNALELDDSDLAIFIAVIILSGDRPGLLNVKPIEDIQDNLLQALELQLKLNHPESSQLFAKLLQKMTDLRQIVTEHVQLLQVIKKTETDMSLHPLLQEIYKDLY
The series can be described thus: Preliminary PPAR-gamma competition binding assays. The settings on record: data not shown.

Series [3] concerns 3T3-L1 fibroblasts. As to the kind of experiment: Adipogenesis (triglyceride accumulation) in 3T3-L1 fibroblasts.
Experimental: After two days of growth in 6-well plates, cells were treated either with vehicle (0.1% DMSO) or with compounds for ten days. Fresh medium with compounds or vehicle was replenished every 48 h. Cells were washed with PBS twice and fixed in 10% formalin (Sigma) in PBS. After washing in PBS, cells were stained with freshly diluted Oil Red O in isopropanol for 1 h at room temperature. The cells were washed five times with PBS and visualized under an Olympus BH2 microscope. Quantitative accumulation of triglyceride was also measured under similar experimental conditions, except in this case cells were plated in 100-mm tissue culture dishes. Triglyceride was extracted with methanol:chloroform (2:1) mixture. […] Extracted triglyceride was measured by a colorimetric assay (GPO-Trinder, Sigma) according to manufacturer instructions.
After 14 days cells were stained with Oil Red O, counterstained with methylene blue for visual assessment (FIG. 23B) and assayed for triglyceride accumulation.

For the molecule `COC(=O)C(=Cc1cc(OC)cc(OC)c1)c1ccc(Oc2ccc(CC3SC(=O)NC3=O)cc2)cc1` (stereo not drawn) [Compound 11, 3-(3,5-Dimethoxyphenyl)-2-{4-[4-(2,4-dioxothiazolidin-5-ylmethyl)-phenoxy]-phenyl}-acrylic acid methyl ester], the “less cancellous bone lost” value in series [1] (AIA rats, treated vs vehicle) is listed as about 50%. In addition, in series [1] (right proximal tibia), the C.Th was determined as 186 ± 25 μm, the “Conn. Dens” value came to 38.3 ± 19.7 l/mm3, the “SMI (0-3)” value turned out to be 2.8 ± 0.3 and the Tb.N was determined as 2.6 ± 0.5 l/mm. Further, the BV/TV in series [1] (right proximal tibia, compound 11 50 mg/kg oral, etanercept 1.67 mg/kg i.p., once daily) amounted to 13.7 ± 4.7%. Besides, the “affinity (Ki) of PPAR-gamma, less than for rosiglitazone” value in series [2] came out at 6.5 fold. Further, the “maximal triglyceride accumulated, increase over control” value in series [3] (3T3-L1 fibroblasts, 0.1, 1, 10 μM, no dexamethasone, insulin, IBMX, FIG. 23A) is reported as 3.96 fold. Moreover, the cytotoxic concentrations in series [3] (3T3-L1 system, data not shown) is at least 100 µM.
